Results: article PMC6401531 (ChemistryOpen, 2019)
Values joined by “and” are separate entries in the source; they are usually repeats but may differ in a detail not shown here. Equal values may be shown once. Read-outs that look alike come from different tables or passages of the source.

Legend:
gpH2R (atrium) [1] = molecular target: T1, gpH2R (atrium) (Cavia porcellus, UniProt P47747); assay: Organ bath study on isolated guinea pig right atrium; details: for Emax gpH2R: maximal response relative to maximal increase in heart rate induced by histamine (Emax=1.00)
T1 sequence (P47747 whole entry): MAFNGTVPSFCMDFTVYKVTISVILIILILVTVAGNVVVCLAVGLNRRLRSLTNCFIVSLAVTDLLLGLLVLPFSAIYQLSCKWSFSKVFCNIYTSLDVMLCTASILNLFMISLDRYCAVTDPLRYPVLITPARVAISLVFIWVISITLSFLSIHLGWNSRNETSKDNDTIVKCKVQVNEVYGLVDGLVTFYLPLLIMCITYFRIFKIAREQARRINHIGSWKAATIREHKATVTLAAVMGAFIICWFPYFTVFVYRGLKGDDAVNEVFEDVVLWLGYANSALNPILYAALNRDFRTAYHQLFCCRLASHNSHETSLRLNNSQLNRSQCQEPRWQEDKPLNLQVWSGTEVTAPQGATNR

hH3R = hH3R (Homo sapiens, UniProt Q9Y5N1); assay: [35S]GTPγS binding assay, Sf9 membranes; type: biochemical
Chain of hH3R (Q9Y5N1 whole entry): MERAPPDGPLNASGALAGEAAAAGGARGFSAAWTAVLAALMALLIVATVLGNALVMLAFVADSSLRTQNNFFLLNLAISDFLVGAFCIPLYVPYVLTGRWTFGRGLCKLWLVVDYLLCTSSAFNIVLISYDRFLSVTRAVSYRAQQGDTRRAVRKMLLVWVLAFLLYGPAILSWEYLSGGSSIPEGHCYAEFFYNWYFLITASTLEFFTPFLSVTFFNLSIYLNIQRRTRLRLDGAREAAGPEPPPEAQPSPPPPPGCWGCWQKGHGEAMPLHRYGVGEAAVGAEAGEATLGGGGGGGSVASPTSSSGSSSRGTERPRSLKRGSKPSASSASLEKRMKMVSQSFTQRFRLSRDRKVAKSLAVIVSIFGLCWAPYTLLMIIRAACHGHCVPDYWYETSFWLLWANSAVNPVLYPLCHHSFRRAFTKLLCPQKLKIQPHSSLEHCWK

gpH1R (ileum) = gpH1R (ileum) (Cavia porcellus, UniProt P31389); assay: Organ bath study on isolated guinea pig ileum
Chain of gpH1R (ileum) (P31389 whole entry): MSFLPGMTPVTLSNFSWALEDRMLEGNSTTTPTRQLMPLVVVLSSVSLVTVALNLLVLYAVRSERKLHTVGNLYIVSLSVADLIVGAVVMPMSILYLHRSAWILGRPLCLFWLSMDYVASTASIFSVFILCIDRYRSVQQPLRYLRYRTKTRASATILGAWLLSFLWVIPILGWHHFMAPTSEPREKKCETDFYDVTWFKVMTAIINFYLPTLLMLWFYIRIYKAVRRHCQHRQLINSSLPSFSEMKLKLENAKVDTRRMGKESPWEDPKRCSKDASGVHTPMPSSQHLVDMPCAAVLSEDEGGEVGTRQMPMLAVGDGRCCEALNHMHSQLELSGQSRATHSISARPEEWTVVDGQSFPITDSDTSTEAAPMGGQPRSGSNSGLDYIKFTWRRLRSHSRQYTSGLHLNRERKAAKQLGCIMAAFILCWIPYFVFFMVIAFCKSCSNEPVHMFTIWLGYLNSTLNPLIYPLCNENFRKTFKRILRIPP

hH2R = hH2R (Homo sapiens, UniProt P25021+P63092); assay: [35S]GTPγS binding assay, Sf9 membranes; type: biochemical
hH4R = hH4R (Homo sapiens, UniProt Q9H3N8); assay: [35S]GTPγS binding assay, Sf9 membranes; type: biochemical
gpH2R (atrium) [2] = molecular target: T1, gpH2R (atrium); details: guinea-pig right atrium, cited from earlier work
[3] = [35S]GTPγS binding, maximal response relative to histamine (Emax=1.00)

EC50 (gpH2R (atrium) [1])	Kb (gpH1R (ileum))	Structure (SMILES)	Emax gpH2R (gpH2R (atrium) [1])	also measured
95.5 nM	174 nM	Cc1nc(N)sc1CCCNC(=N)NCCCCCCCCCCCCNC(=N)N [compound 130]	0.90±0.04	Emax hH3R (hH3R): −1.21±0.10; Emax hH2R (hH2R): 0.22 and 0.22±0.01
4680 nM	16600 nM	N=C(NCCCN)NCCCc1c[nH]cn1 [compound 115, 1‐(3‐Aminopropyl)‐3‐[3‐(1H‐imidazol‐4‐yl)propyl]guanidine]	0.88±0.05	
117 nM	8.71 nM	N=C(N)NCCCCCCCCCCCCNC(=N)NCCCc1cnc(N)s1 [compound 131]	0.85±0.05	
38.9 nM	50.1 nM	N=C(N)NCCCCCCCCNC(=N)NCCCc1cnc(N)s1 [compound 129]	1.00±0.01	
324 nM	70.8 nM	Cc1nc(N)sc1CCCNC(=N)NCCCCCCCCCCCCN [compound 121]	0.71±0.03	Emax hH3R (hH3R): −0.69±0.03; Emax hH2R (hH2R): 0.22 and 0.22±0.01; Emax hH4R (hH4R): 0; Kb (hH4R): 178000 nM
50.1 nM	2630 nM	N=C(N)NCCCCNC(=N)NCCCc1c[nH]cn1 [compound 123]	1.03 and 1.03±0.03	
7410 nM	3800 nM	N=C(NCCCCN)NCCCc1c[nH]cn1 [compound 116]	0.68±0.02	
21.4 nM	933 nM	N=C(N)NCCCCCCNC(=N)NCCCc1c[nH]cn1 [compound 124]	0.94±0.02	
27.5 nM	251 nM	N=C(N)NCCCCCCCCCCNC(=N)NCCCc1c[nH]cn1 [compound 126]	0.80±0.02	
182 nM	1410 nM	N=C(NCCCCCCCCNC(N)=O)NCCCc1c[nH]cn1 [compound 135]	0.94±0.05	
2450 nM	9120 nM	N=C(NCCCNC(N)=O)NCCCc1c[nH]cn1 [compound 132]	0.89±0.03	
7410 nM	3890 nM	CSC(=N)NCCCc1c[nH]cn1 [compound 143, N‐[3‐(1H‐Imidazol‐4‐yl)propyl]‐S‐methylisothiourea]	0.45 and 0.45±0.05	rel. potency (gpH2R (atrium) [2]; relative to histamine): 0.1; maximum response (gpH2R (atrium) [2]): 0.23
269000 nM	> 31600 nM	NC(=O)NCCCc1c[nH]cn1 [compound 145, 1‐[3‐(1H‐Imidazol‐4‐yl)propyl]urea]	0.58±0.02	
288 nM	6030 nM	N=C(NCCCCNC(N)=O)NCCCc1c[nH]cn1 [compound 133]	1.03±0.03	
11000 nM		NC(=S)NCCCc1c[nH]cn1 [compound 142]	0.27±0.02	
234 nM	9.33 nM	N=C(NCCCCCCCCCCCCN)NCCCc1cnc(N)s1 [compound 122]	0.90±0.05	
		NCCc1c[nH]cn1 [compound 1, histamine, reference compound]	1.00	Emax hH3R (hH3R; [3]): 1.00; Emax hH2R (hH2R; [3]): 1.00; Emax hH4R (hH4R; [3]): 1.00
295 nM	1000 nM	N=C(NCCCCCCCCCCNC(N)=O)NCCCc1c[nH]cn1 [compound 136]	0.96±0.01	Emax hH3R (hH3R): −1.20±0.15; Emax hH2R (hH2R): 0.45 and 0.45±0.03
389 nM	676 nM	N=C(NCCCCCCCCCCN)NCCCc1c[nH]cn1 [compound 119]	0.78±0.01	
309 nM	1290 nM	N=C(NCCCCCCCCN)NCCCc1c[nH]cn1 [compound 118]	0.75±0.10	
380 nM	6310 nM	N=C(NCCCCCCN)NCCCc1c[nH]cn1 [compound 117]	0.79±0.01	
135 nM	214 nM	Cc1nc(N)sc1CCCNC(=N)NCCCCCCCCNC(=N)N [compound 128]	0.72±0.02	
56.2 nM	60.3 nM	N=C(N)NCCCCCCCCCCCCNC(=N)NCCCc1c[nH]cn1 [compound 127]	0.77±0.07	Emax hH3R (hH3R): 0; Kb (hH3R): 66.1 nM; Emax hH2R (hH2R): 0.45±0.03; Emax hH4R (hH4R): 0; Kb (hH4R): 417000 nM
138 nM	112 nM	N=C(NCCCCCCCCCCCCN)NCCCc1c[nH]cn1 [compound 120]	1.00 and 1.00±0.06	Emax hH3R (hH3R): 0; Kb (hH3R): 191 nM; Emax hH2R (hH2R): 0.66±0.01; Emax hH4R (hH4R): 0; Kb (hH4R): 372000 nM
676 nM	7410 nM	N=C(NCCCCCCNC(N)=O)NCCCc1c[nH]cn1 [compound 134]	0.96±0.03	
20.4 nM	1620 nM	N=C(N)NCCCCCCCCNC(=N)NCCCc1c[nH]cn1 [compound 125]	0.83 and 0.83±0.07	

Structure (SMILES)	EC50 (gpH2R (atrium) [1])	Kb (gpH1R (ileum))	Emax gpH2R (gpH2R (atrium) [1])	also measured
O=C(NC(=S)NCCCc1c[nH]cn1)c1ccccc1 [compound 141, N‐{[3‐(1H‐Imidazol‐4‐yl)propyl]thiocarbamoyl}benzamide]	18600 nM		0.43±0.01	
O=C(NCCCc1c[nH]cn1)NC(=O)c1ccccc1 [compound 144]	24000 nM	9550 nM	0.15±0.03	
